Experimental data reported in the NIST ThermoML archive (doi:10.1016/j.jct.2011.01.014).
Numbers after ± are expanded uncertainties.

Assay: xn = mol fraction of the nth substance listed
Conditions: 101 kPa, Liquid; for mass density: Vibrating tube method; for speed of sound: sound velocity cell

CC(=O)[O-].[NH3+]CCO [2-hydroxyethylammonium acetate] + CO
Conditions	mass density, 315.65 K [kg/m3]	mass density, 318.15 K [kg/m3]	mass density, 320.65 K [kg/m3]	mass density, 323.15 K [kg/m3]	speed of sound, 315.65 K [m/s]	speed of sound, 318.15 K [m/s]	speed of sound, 320.65 K [m/s]	speed of sound, 323.15 K [m/s]
x1 = 0.0492	–	823.867 ± 1.1	821.611 ± 1.1	819.344 ± 1.1	1130.1 ± 1.9	1122.4 ± 1.9	1114.8 ± 1.9	1107 ± 2
x1 = 0.0951	–	866.652 ± 0.74	864.531 ± 0.74	862.394 ± 0.76	1194.7 ± 1.7	1187.2 ± 1.7	1179.8 ± 1.7	1172.3 ± 1.7
x1 = 0.1987	–	935.943 ± 0.63	934.029 ± 0.63	932.105 ± 0.64	1313.1 ± 1.7	1306 ± 1.7	1299.1 ± 1.7	1292.1 ± 1.8
x1 = 0.29	–	981.405 ± 0.53	979.623 ± 0.53	977.831 ± 0.54	1402.7 ± 1.8	1396.1 ± 1.8	1389.4 ± 1.8	1382.7 ± 1.8
x1 = 0.3786	–	1014.8 ± 0.55	1013.12 ± 0.55	1011.42 ± 0.55	1475 ± 1.9	1468.6 ± 1.9	1462.3 ± 1.9	1455.9 ± 1.9
x1 = 0.4825	–	1047.21 ± 0.71	1045.59 ± 0.7	1043.94 ± 0.7	1551.4 ± 2	1545.3 ± 2	1539.3 ± 2	1533.2 ± 2
x1 = 0.6007	1077.07 ± 0.99	1075.56 ± 0.98	1074.05 ± 0.98	1072.54 ± 0.98	1621.4 ± 2.3	1615.5 ± 2.3	1609.6 ± 2.3	1603.7 ± 2.3
x1 = 0.6711	1091.61 ± 1.2	1090.14 ± 1.2	1088.66 ± 1.2	1087.18 ± 1.2	1658.5 ± 2.4	1652.7 ± 2.4	1646.9 ± 2.4	1641.1 ± 2.4
x1 = 0.7797	1110.6 ± 1.6	1109.14 ± 1.6	1107.66 ± 1.6	1106.19 ± 1.5	1678 ± 2.6	1672.5 ± 2.6	1667 ± 2.6	1661.7 ± 2.7
x1 = 0.8297	1118.54 ± 1.8	1117.15 ± 1.7	1115.77 ± 1.7	1114.37 ± 1.7	1731.2 ± 2.8	1725.7 ± 2.8	1720.2 ± 2.8	1714.7 ± 2.8
x1 = 0.9328	1132.26 ± 2.2	1130.88 ± 2.2	1129.49 ± 2.2	1128.1 ± 2.2	1728.4 ± 3	1723 ± 3	1717.6 ± 3	1712.3 ± 3
x1 = 1	1139.18 ± 2.5	1137.82 ± 2.5	1136.45 ± 2.5	1135.08 ± 2.5	1751.9 ± 3.2	1746.5 ± 3.2	1741.3 ± 3.2	1736 ± 3.2
